Results from patent US7119077B1, “Multimeric forms of members of the steroid/thyroid superfamily of receptors with the ultraspiracle receptor” (The Salk Institute for Biological Studies, priority 1990, dated 2006).

T1: RARα (human) (Homo sapiens, UniProt P10276 P10276:1-462)
T1 sequence: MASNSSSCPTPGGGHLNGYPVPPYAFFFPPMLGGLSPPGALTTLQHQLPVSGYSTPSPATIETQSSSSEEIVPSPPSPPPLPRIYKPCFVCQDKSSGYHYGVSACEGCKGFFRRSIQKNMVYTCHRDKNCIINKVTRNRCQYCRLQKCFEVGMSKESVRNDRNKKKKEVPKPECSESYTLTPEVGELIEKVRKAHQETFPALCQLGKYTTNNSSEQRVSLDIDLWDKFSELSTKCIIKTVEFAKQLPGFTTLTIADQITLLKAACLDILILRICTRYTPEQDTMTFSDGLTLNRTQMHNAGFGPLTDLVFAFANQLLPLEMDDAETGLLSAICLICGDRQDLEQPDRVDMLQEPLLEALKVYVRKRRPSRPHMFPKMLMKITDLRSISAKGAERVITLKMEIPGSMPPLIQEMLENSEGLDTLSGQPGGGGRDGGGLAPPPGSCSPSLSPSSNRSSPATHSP

T2: usp/RARα heterodimer (Drosophila melanogaster / Homo sapiens, UniProt P20153;P10276 P20153:1-508,P10276:1-462)
T2 sequence 1: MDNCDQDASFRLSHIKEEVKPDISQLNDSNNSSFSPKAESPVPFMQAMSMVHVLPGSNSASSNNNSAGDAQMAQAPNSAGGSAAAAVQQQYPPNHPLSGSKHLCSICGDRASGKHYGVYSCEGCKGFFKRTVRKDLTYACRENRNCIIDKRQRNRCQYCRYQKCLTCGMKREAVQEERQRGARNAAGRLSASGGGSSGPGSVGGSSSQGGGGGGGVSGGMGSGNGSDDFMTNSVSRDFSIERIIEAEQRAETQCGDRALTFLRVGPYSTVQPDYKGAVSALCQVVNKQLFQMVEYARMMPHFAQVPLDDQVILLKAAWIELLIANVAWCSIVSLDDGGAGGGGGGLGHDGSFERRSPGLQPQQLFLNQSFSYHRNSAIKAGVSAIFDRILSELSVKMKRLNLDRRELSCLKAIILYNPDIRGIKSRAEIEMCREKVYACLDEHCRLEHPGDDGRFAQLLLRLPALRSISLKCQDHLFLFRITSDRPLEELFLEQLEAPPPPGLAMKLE
T2 sequence 2: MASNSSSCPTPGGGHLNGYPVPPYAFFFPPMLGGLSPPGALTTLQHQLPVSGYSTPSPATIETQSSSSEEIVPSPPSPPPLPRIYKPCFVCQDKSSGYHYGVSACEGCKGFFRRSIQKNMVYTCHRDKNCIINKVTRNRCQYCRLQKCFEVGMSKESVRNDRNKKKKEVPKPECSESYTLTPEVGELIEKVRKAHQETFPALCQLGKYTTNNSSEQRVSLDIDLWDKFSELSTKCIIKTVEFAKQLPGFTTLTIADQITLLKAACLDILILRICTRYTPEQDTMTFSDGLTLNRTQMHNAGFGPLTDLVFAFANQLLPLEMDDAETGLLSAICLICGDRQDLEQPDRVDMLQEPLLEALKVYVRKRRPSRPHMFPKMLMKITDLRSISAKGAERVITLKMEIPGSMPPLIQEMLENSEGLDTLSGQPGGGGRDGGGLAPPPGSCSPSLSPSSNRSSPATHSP

T3: ultraspiracle (usp) (Drosophila melanogaster, UniProt P20153 SEQ:1-513)
T3 sequence: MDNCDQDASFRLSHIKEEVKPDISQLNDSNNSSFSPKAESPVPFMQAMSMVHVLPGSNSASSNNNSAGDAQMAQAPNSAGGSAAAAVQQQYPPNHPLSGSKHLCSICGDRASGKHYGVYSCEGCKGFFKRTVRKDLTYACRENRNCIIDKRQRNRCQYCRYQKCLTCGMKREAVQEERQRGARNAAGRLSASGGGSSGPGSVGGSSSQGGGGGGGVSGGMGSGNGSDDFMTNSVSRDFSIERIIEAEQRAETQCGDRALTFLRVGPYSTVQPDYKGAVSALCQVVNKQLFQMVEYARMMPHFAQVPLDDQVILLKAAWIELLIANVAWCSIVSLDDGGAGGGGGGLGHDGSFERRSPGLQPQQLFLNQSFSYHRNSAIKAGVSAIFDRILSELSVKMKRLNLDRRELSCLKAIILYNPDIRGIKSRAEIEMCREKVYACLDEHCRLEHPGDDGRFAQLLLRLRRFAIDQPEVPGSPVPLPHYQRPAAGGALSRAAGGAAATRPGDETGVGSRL


Legend:
[1] = molecular target: EcR/usp complex (Drosophila melanogaster, UniProt P20153+P34021); settings: cold oligonucleotide competitor, in vitro translated EcR and usp
Sequence of EcR/usp complex (P34021 whole entry, one chain of several): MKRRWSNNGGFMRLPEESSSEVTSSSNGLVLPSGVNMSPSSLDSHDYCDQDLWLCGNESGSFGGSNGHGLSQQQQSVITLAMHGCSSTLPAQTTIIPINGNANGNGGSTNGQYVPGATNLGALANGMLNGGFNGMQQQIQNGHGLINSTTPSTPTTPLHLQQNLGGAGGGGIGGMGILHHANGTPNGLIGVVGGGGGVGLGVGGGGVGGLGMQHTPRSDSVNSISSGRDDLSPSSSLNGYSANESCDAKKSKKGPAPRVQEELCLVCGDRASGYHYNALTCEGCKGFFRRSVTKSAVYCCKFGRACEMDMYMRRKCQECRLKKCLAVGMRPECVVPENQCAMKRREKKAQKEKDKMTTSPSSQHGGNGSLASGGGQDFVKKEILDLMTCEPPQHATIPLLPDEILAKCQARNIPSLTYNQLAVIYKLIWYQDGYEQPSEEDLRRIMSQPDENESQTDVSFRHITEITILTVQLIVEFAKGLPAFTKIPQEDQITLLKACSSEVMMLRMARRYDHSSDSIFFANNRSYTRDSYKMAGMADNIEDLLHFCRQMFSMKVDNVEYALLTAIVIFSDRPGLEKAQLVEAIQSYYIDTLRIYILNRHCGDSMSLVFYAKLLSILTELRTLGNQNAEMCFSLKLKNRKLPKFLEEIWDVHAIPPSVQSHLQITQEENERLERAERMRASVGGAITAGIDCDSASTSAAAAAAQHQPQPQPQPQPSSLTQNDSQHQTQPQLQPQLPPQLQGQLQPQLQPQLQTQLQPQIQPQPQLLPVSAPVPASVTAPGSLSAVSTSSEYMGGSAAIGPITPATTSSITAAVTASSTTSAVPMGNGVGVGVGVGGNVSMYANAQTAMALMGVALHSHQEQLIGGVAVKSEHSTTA
Protocol: To generate protein in vitro, suitable plasmids for human (h)RARα, hTRB, hVDR, rat PPAR, Drosophila (d)usp and dEcR were linearized with restriction enzyme 3′ of the termination codon. The linearized templates were used for in vitro transcription and then translation using rabbit reticulocyte lysate according to manufacturer's instruction (Promega). […] Schneider cell extracts were prepared following the procedures in Damm et al., Nature Vol. 339:593–597 (1989) and Umesono et al. (1991), supra. The extraction buffer contained 0.4 M KCl in 20 mM HEPES pH 7.5, 20% glycerol, 2 mM DTT and 1 mM PMSF.
For gel mobility shift assay, proteins were incubated with binding buffer, which contained 100 mM KCl, 7.5% glycerol, 20 mM HEPES pH 7.5, 2 mM DTT and 0.1% NP-40, on ice for 20 minutes in the presence of 2 μg of nonspecific competitor poly dI-dC and other oligo competitors. Then approximately 1 ng of ^32P-dCTP probe, which was labelled to specific activity about 1–5×10^8 cpm/μg by fill-in reaction with Klenow fragments, was added to the reaction and incubated at room temperature for 20 minutes. […] The reaction was then loaded into 5% non-denaturing polyacrylamide gel in 0.5×TBE running buffer [1×TBE comprises 0.089 M Tris borate, 0.089 M boric acid and 0.002 M EDTA]. After electrophoresis, the gel was dried for autoradiography.
The ability of EcR/usp complex to recognize this EcRE was examined.

[2] = molecular target: T1, RARα (human); experiment: EMSA; RARα alone; settings: label: 32P
Protocol: (§1) For gel mobility shift assay, proteins were incubated with binding buffer, which contained 100 mM KCl, 7.5% glycerol, 20 mM HEPES pH 7.5, 2 mM DTT and 0.1% NP-40, on ice for 20 minutes in the presence of 2 μg of nonspecific competitor poly dI-dC and other oligo competitors. Then approximately 1 ng of ^32P-dCTP probe, which was labelled to specific activity about 1-5×10^8 cpm/μg by fill-in reaction with Klenow fragments, was added to the reaction and incubated at room temperature for 20 minutes. Antiserum or preimmune serum was added 10 minutes after the probe was added. The reaction was then loaded into 5% non-denaturing polyacrylamide gel in 0.5×TBE running buffer [1×TBE comprises 0.089 M Tris borate, 0.089 M boric acid and 0.002 M EDTA]. After electrophoresis, the gel was dried for autoradiography.
In gel mobility shift assays using a ^32P-labelled natural RAR response element—βRARE [see SEQ ID NO:15, see also de The et al., in Nature Vol. 343:177–180 (1990); and Sucov et al., in Proc. Natl. Acad. Sci. USA Vol. 87:5392–5398 (1990)] as the probe, in vitro translated RARα was incubated with probe under binding conditions either alone or with 2 µg of S2 extracts or embryo extracts.
Neither in vitro translated usp alone, nor RARα alone, bound to a βRARE probe. […] This complex comigrated with the complex detected in the RAR and cell extract mixing experiments. […]

[3] = molecular target: T2, usp/RARα heterodimer; experiment: EMSA; prominent complex; affected by usp and RARα antibodies; settings: label: 32P
Protocol: as §1
(§2) Neither in vitro translated usp alone, nor RARα alone, bound to a βRARE probe. However, when the two proteins were incubated together, a prominent retarded complex appeared. This complex comigrated with the complex detected in the RAR and cell extract mixing experiments. […] Either the affinity purified usp antibody, or the RARα, specifically affected the protein/ DNA complex, while preimmune sera had no effect. […]

[4] = molecular target: T3, ultraspiracle (usp); experiment: EMSA; usp alone; settings: label: 32P
Protocol: as §1, §2

Row | Molecule | competition of EcR/usp binding to hsp27-EcRE [1] | binding result [2] | binding result [3] | binding result [4]
1 | 11N-EcRE: mutant hsp27-EcRE, two nucleotides at the ends of the palindrome and the flanking sequence changed (DNA ATGCTGTGCATTGAACGTGCTCGA; further chemistry not given here) | did not compete | – | – | –
2 | 15N-EcRE: back mutation of hsp27-EcRE which regenerated the palindrome motif (DNA ATGAAGTGCATTGAACCCGCTCGA; further chemistry not given here) | effective competition | – | – | –
3 | Eip28/29-EcRE: EcRE derived from the Drosophila Eip28/29 gene, composite element with direct repeat and degenerated palindromic motif (DNA TAAAGGATCTTGACCCCAATGAACTTCTTA; further chemistry not given here) | can effectively compete | – | – | –
4 | βRARE (DR5) (dsDNA) DNA 1: GGTTCACCGAAAGTTCA DNA 2: TGAACTTTCGGTGAACC | – | no binding | binds | no binding
